Test results published in patent publication US8552058B2, “Application of L-n-butylphthalide in preventing and treating dementia” (CSPC Zhongqi Pharmaceutical Technology (Shijazhuang) Co., …, priority 2004, dated 2013).
“Also recorded” adds a separate entry of the source.

How the values were obtained:
[1] = tested on: rats with continuous perfusion of Aβ (1-40) into lateral ventricle; assay: Morris' water maze and working memory test after continuous i.c.v. perfusion of Aβ (1-40); type: in vivo, Wistar rats; settings: continuous perfusion of Aβ (1-40) into lateral ventricle, rats, Morris' water maze
Protocol: For Morris' Water Maze Automatic Monitor and experimental protocols, reference may be made to the experiments of learning and memory damage of rats induced by brain hypoperfusion.
Male Wistar rats, which were 10-weeks old and weighed approximately 280 grams, were used. One animal was placed in one cage, while the room temperature was kept at 23° C., with food and water freely accessible. Rats were anaesthetized with sodium pentobarbital (40 mg/kg), and were fixed to stereotaxic apparatus with the position of ventral decubitus. Head skin was cut open, a cannula for Aβ (1-40) perfusion was implanted into right ventricle. According to the stereotaxic profile of rat brain by Paxions and Watson, the implantation site was located 0.3 mm behind and 1.1 mm in the right side of anterior fontanelle, with the depth of 4.0 mm. The cannula was connected to a micro-osmotic pump. The pump was placed on the back of the rat. Aβ (1-40) was dissolved in 35% acetonitrile/0.1% trifluroacetic acid, and was continuously perfused intracerebroventricularly (i.c.v.) at 300 pmol/day, while only the solvent (35% acetonitrile/0.1% trifluroacetic acid) was perfused in the control group.
Rats were randomly classified into […] groups, with 10 animals per group. 1) the sham surgery group: only 35% acetonitrile/0.1% trifluroacetic acid+solvent was perfused into the ventricles of the rats; 2) the model group: Aβ (1-40)+solvent; 3) Aβ (1-40)+L-NBP 10 mg/kg group; 4) Aβ (1-40)+L-NBP 30 mg/kg group. Respective drug or solvent was drenched since the 2nd day after the surgery. The water maze experiment was performed on the 9-13 day after the surgery, while the platform exploration experiment was performed on the 13th day, and the working memory test was performed on the 14-16th days. Animals were decapitated to remove brains for biochemical assay on the 17th day. In all ethological tests, medicines were administered 40 minutes prior to the respective test.
The water maze training experiment was performed on the 9-13th day after icv Aβ (1-40), and the platform exploration experiment was performed on the 13 day after that. The working memory test was performed on the 14-16th day after icv Aβ (1-40) (see the figure above), which investigated the ability of rapid learning and spatial memory in animals when the platform and quadrant were changed, based on the fact that animals had memorized in some extent after training and platform exploration experiment. Experimental procedure was similar to the standard water maze training experiment except that the platform's location was changed every day. The experiment was conducted five times every day, allowing the rats to start swimming from five water-entry sites respectively. […] In the following 4 experiments, the location of the platform was kept constant, yet the water entry sites were within different quadrants. The latency of working memory was calculated by averaging those of the 2-5th experiments, and the ability of working memory of each rat was calculated by averaging the experimental values in 3 days.
All results were expressed in mean±standard error. Comparison of latencies between groups in water maze experiment was performed using two-factor analysis of variance in replicate. Comparison between groups was performed using post hoc LSD or Turkey test. Platform exploration test in water maze experiment, working memory test and biochemical assay were analyzed using one-factor analysis of variance. A difference was considered significant when p<0.05.

[2] = tested on: rats with permanent ligation of bilateral common carotid arteries (2-VO model); assay: Morris' water maze (training latency, platform exploration) in 2-VO hypoperfusion model; type: in vivo, Wistar rats; settings: for effect on detention time in the target quadrant (platform exploration test) / improvement of latency / search strategy in water maze: 2-VO rats; for improvement of latency / search strategy in water maze: vs solvent control; for amelioration of impaired short-term memory and spatial orientation (overall conclusion): 2-VO rats with poor blood supply to brain, L-NBP at 10 mg/kg, 10 mg/kg
[3] = tested on: rats with coriamyrtin-induced impaired learning and memory; settings: Shuren Yu et al. 1988, cited from earlier work

Compound | amelioration of impaired short-term memory and stereotaxic memory (overall conclusion) [1] | effect on detention time in the target quadrant (platform exploration test) ([2]; 10 mg/kg oral) | improvement of latency / search strategy in water maze ([2]; 10 mg/kg oral) | effect on detention time in the target quadrant (platform exploration test) ([2]; 30 mg/kg oral) | improvement of latency / search strategy in water maze ([2]; 30 mg/kg oral) | amelioration of impaired short-term memory and spatial orientation (overall conclusion) ([2]; listed as racemic (DL-)) | amelioration of impaired short-term memory and spatial orientation (overall conclusion) ([2]; listed as racemic butylphthalide) | improvement of impaired learning and memory induced by coriamyrtin [3] | protection of hippocampal cells ([3]; coriamyrtin) | amelioration of impaired short-term memory and spatial orientation (overall conclusion) [2] | amelioration of impaired short-term memory and spatial orientation (overall conclusion) ([2]; listed as D-butylphthalide)
CCCCC1OC(=O)c2ccccc21 (racemic) [DL-NBP, 3-n-butylphthalide] | neither D-NBP nor DL-NBP showed similar effects | no effect | no significant effect of improvement; also recorded: no obvious improved effect | no effect | no significant effect of improvement; also recorded: no obvious improved effect | could not | neither racemic butylphthalide nor D-butylphthalide were effective | could be used to improve the impaired learning and memory | protect hippocampal cells | – | –
CCCC[C@H]1OC(=O)c2ccccc21 [D-NBP, D-n-butylphthalide] | neither D-NBP nor DL-NBP showed similar effects | – | – | – | no significant effect of improvement; also recorded: no obvious improved effect | – | – | – | – | could not | neither racemic butylphthalide nor D-butylphthalide were effective
